Source: ChEMBL document CHEMBL1201862, “PubChem BioAssay data set” (2004)
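Assay format: 96-well plates, 48-hour exposure. Abbreviation: GI50, concentration required for 50% inhibition of growth.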 Calls of active or inactive are those of the source. Cut-off read from the data, not from the text of the source: active = GI50 up to about 1.1 µM and inactive = higher.

Tests used:
Test in all cases: NCI tumour cell line growth inhibition, 48 h
786-0 = system: 786-0
A549 = system: A549
ACHN = system: ACHN
BT-549 = system: BT-549
CAKI-1 = system: CAKI-1
CCRF-CEM = system: CCRF-CEM
COLO 205 = system: COLO 205
DU-145 = system: DU-145
EKVX = system: EKVX
HCT-116 = system: HCT-116
HCT-15 = system: HCT-15
HL-60 = system: HL-60
HOP-62 = system: HOP-62
HT-29 = system: HT-29
Hs-578T = system: Hs-578T
IGROV-1 = system: IGROV-1
K562 = system: K562
KM12 = system: KM12
LOX IMVI = system: LOX IMVI
M14 = system: M14
MCF7 = system: MCF7
MDA-MB-231 = system: MDA-MB-231
MDA-MB-435 = system: MDA-MB-435
MDA-N = system: MDA-N
MOLT-4 = system: MOLT-4
Malme-3M = system: Malme-3M
NCI-H226 = system: NCI-H226
NCI-H23 = system: NCI-H23
NCI-H460 = system: NCI-H460
NCI-H522 = system: NCI-H522
NCI/ADR-RES = system: NCI/ADR-RES
OVCAR-3 = system: OVCAR-3
OVCAR-4 = system: OVCAR-4
OVCAR-5 = system: OVCAR-5
OVCAR-8 = system: OVCAR-8
PC-3 = system: PC-3
RPMI-8226 = system: RPMI-8226
RXF 393 = system: RXF 393
SF-268 = system: SF-268
SF-295 = system: SF-295
SF-539 = system: SF-539
SK-MEL-28 = system: SK-MEL-28
SK-MEL-2 = system: SK-MEL-2
SK-MEL-5 = system: SK-MEL-5
SK-OV-3 = system: SK-OV-3
SN12C = system: SN12C
SNB-19 = system: SNB-19
SNB-75 = system: SNB-75
SW-620 = system: SW-620
TK-10 = system: TK-10
U-251 = system: U-251
UACC-257 = system: UACC-257
UACC-62 = system: UACC-62
UO-31 = system: UO-31
HOP-92 = system: HOP-92
SR = system: SR
T47D = system: T47D

Measured: GI50

COC1OC2COC(=O)c3cc(O)c(O)c(O)c3-c3c(cc(O)c(O)c3O)C(=O)OC2C(O)C1O (stereo not drawn)
> 100 µM: HCT-15
inactive: 786-0 47.4 µM | A549 72.6 µM | ACHN 77.8 µM | BT-549 > 100 µM | CAKI-1 63.8 µM | CCRF-CEM 37.3 µM | COLO 205 54.1 µM | DU-145 > 100 µM | EKVX > 100 µM | HCT-116 34.9 µM | HL-60 > 10 µM | HOP-62 53 µM | HT-29 34.4 µM | Hs-578T > 100 µM | IGROV-1 > 100 µM | K562 36.4 µM | KM12 > 100 µM | LOX IMVI 23.2 µM | M14 43.9 µM | MCF7 42.6 µM | MDA-MB-231 > 100 µM | MDA-MB-435 30.5 µM | MDA-N 24 µM | MOLT-4 28.6 µM | Malme-3M > 100 µM | NCI-H226 > 100 µM | NCI-H23 > 100 µM | NCI-H460 45.3 µM | NCI-H522 94.8 µM | NCI/ADR-RES > 100 µM | OVCAR-3 80 µM | OVCAR-4 31.5 µM | OVCAR-5 53.8 µM | OVCAR-8 54.1 µM | PC-3 > 100 µM | RPMI-8226 55.7 µM | RXF 393 > 100 µM | SF-268 64 µM | SF-295 18.9 µM | SF-539 > 100 µM | SK-MEL-28 > 100 µM | SK-MEL-2 84.5 µM | SK-MEL-5 84.7 µM | SK-OV-3 > 100 µM | SN12C 16.5 µM | SNB-19 > 100 µM | SNB-75 62.8 µM | SW-620 21.7 µM | TK-10 > 100 µM | U-251 61.2 µM | UACC-257 > 100 µM | UACC-62 21.4 µM | UO-31 > 100 µM

COC(=O)C1Cc2c(OC)ccc(OC)c2C(O)C1C(=O)OC (stereo not drawn)
inactive: 786-0 > 100 µM | A549 > 100 µM | ACHN > 100 µM | CAKI-1 > 100 µM | CCRF-CEM > 100 µM | COLO 205 > 100 µM | DU-145 > 100 µM | EKVX > 100 µM | HCT-116 > 100 µM | HL-60 > 100 µM | HOP-62 > 100 µM | HOP-92 > 100 µM | HT-29 > 100 µM | Hs-578T > 100 µM | IGROV-1 > 100 µM | K562 > 100 µM | KM12 > 100 µM | LOX IMVI > 100 µM | M14 > 100 µM | MCF7 > 100 µM | MDA-MB-231 > 100 µM | MDA-MB-435 > 100 µM | MDA-N > 100 µM | MOLT-4 > 100 µM | Malme-3M > 100 µM | NCI-H226 > 100 µM | NCI-H23 > 100 µM | NCI-H460 > 100 µM | NCI-H522 > 100 µM | NCI/ADR-RES > 100 µM | OVCAR-3 > 100 µM | OVCAR-4 > 100 µM | OVCAR-5 > 100 µM | OVCAR-8 > 100 µM | PC-3 > 100 µM | RPMI-8226 > 100 µM | RXF 393 > 100 µM | SF-268 > 100 µM | SF-295 > 100 µM | SF-539 > 100 µM | SK-MEL-28 > 100 µM | SK-MEL-2 > 100 µM | SK-MEL-5 > 100 µM | SN12C > 100 µM | SNB-19 > 100 µM | SNB-75 > 100 µM | SR > 100 µM | SW-620 > 100 µM | T47D > 100 µM | TK-10 > 100 µM | U-251 > 100 µM | UACC-257 > 100 µM | UACC-62 > 100 µM | UO-31 > 100 µM
